{"source": "patent US20230053540A1", "about": "“TREATMENT OF LIVER INJURY” (Massachusetts Institute of Technology, priority 2019, published 2023)", "system": "hepatocytes", "assay": "Seq-Well scRNA-Seq of hepatocytes after APAP overdose (signature scores, DEG vs untreated)", "type": "in vivo, mouse", "details": "APAP vs UT, composite DEG"}
{"smiles": "CC(=O)Nc1ccc(O)cc1", "note": "[APAP, acetaminophen]", "values": [{"measurement": "Apoa5 logFC", "value": 0.3232}, {"measurement": "Apob logFC", "value": 0.5802}, {"measurement": "Apoc3 logFC", "value": "−0.7688"}, {"measurement": "Apoc4 logFC", "value": "−1.002"}, {"measurement": "Apom logFC", "value": "−0.3024"}, {"measurement": "Aqp9 logFC", "value": "−0.3109"}, {"measurement": "Arg1 logFC", "value": 0.3179}, {"measurement": "Arhgap5 logFC", "value": 0.2952}, {"measurement": "Arhgef12 logFC", "value": 0.5908}, {"measurement": "Arl5a logFC", "value": 0.2648}, {"measurement": "Arl6ip1 logFC", "value": "−0.3649"}, {"measurement": "Arpc1b logFC", "value": 0.2597}, {"measurement": "Arrdc3 logFC", "value": 0.5269}, {"measurement": "Asgr2 logFC", "value": 0.3064}, {"measurement": "Asl logFC", "value": 0.5586}, {"measurement": "Ass1 logFC", "value": "−0.3144"}, {"measurement": "Atf5 logFC", "value": 0.329}, {"measurement": "Atf6 logFC", "value": 0.3778}, {"measurement": "Atp1a1 logFC", "value": 0.4191}, {"measurement": "Atp1b1 logFC", "value": 0.3702}, {"measurement": "Atp2a2 logFC", "value": 0.495}, {"measurement": "Atp2b1 logFC", "value": 0.3321}, {"measurement": "Atp5b logFC", "value": 0.2917}, {"measurement": "Atp5c1 logFC", "value": "−0.3476"}, {"measurement": "Atp5g3 logFC", "value": "−0.3002"}, {"measurement": "Atp5k logFC", "value": "−0.4773"}, {"measurement": "Atp5o logFC", "value": "−0.3316"}, {"measurement": "Atp6v1f logFC", "value": "−0.2529"}, {"measurement": "Atp11c logFC", "value": 0.2605}, {"measurement": "Atp13a3 logFC", "value": 0.3945}, {"measurement": "Atp5h logFC", "value": "−0.6398"}, {"measurement": "Atp5d logFC", "value": 0.2501}, {"measurement": "Atxn7l3b logFC", "value": 0.3062}, {"measurement": "Azin1 logFC", "value": 0.2701}, {"measurement": "B2m logFC", "value": "−0.418"}, {"measurement": "B4galt5 logFC", "value": 0.4763}, {"measurement": "BC025446 logFC", "value": 0.2942}, {"measurement": "BC089597 logFC", "value": 0.2622}, {"measurement": "Baat logFC", "value": "−0.3086"}, {"measurement": "Bach1 logFC", "value": 0.8323}, {"measurement": "Bbox1 logFC", "value": "−0.4082"}, {"measurement": "Bche logFC", "value": 0.3134}, {"measurement": "Bckdha logFC", "value": "−0.35"}, {"measurement": "Bcl2l1 logFC", "value": 0.7751}, {"measurement": "Bet1 logFC", "value": "−0.2966"}, {"measurement": "Bfar logFC", "value": 0.2903}, {"measurement": "Bhmt2 logFC", "value": "−0.3114"}, {"measurement": "Bhmt logFC", "value": "−0.5202"}, {"measurement": "Birc6 logFC", "value": 0.3444}, {"measurement": "Bnip3 logFC", "value": 0.4032}, {"measurement": "Bola3 logFC", "value": "−0.3689"}, {"measurement": "Bphl logFC", "value": "−0.4075"}, {"measurement": "Bptf logFC", "value": 0.3245}, {"measurement": "Brap logFC", "value": 0.3492}, {"measurement": "Brd2 logFC", "value": 0.5715}, {"measurement": "Bsg logFC", "value": "−0.3152"}, {"measurement": "Bst2 logFC", "value": "−0.3156"}, {"measurement": "Btaf1 logFC", "value": 0.2755}, {"measurement": "Bzw1 logFC", "value": 0.2948}, {"measurement": "C1qb logFC", "value": 0.6817}, {"measurement": "C3 logFC", "value": 0.4495}, {"measurement": "C4b logFC", "value": 0.2833}, {"measurement": "C8b logFC", "value": "−0.3602"}, {"measurement": "C8g logFC", "value": "−0.6545"}, {"measurement": "C9 logFC", "value": "−0.4271"}, {"measurement": "C130074G19Rik logFC", "value": "−0.3563"}, {"measurement": "C230081A13Rik logFC", "value": 0.427}, {"measurement": "Cald1 logFC", "value": 0.3737}, {"measurement": "Calr logFC", "value": 0.5551}, {"measurement": "Camk2n1 logFC", "value": 0.2501}, {"measurement": "Caprin1 logFC", "value": 0.2628}, {"measurement": "Car3 logFC", "value": "−1.036"}, {"measurement": "Car5a logFC", "value": "−0.3088"}, {"measurement": "Cars logFC", "value": 0.3158}, {"measurement": "Cast logFC", "value": 0.4009}, {"measurement": "Cbr1 logFC", "value": 0.2847}, {"measurement": "Ccbl1 logFC", "value": "−0.3649"}, {"measurement": "Ccl6 logFC", "value": 0.7891}, {"measurement": "Ccs logFC", "value": "−0.4267"}, {"measurement": "Cd1d1 logFC", "value": 0.2912}, {"measurement": "Cd5l logFC", "value": 0.6935}, {"measurement": "Cd14 logFC", "value": 0.3621}, {"measurement": "Cd163 logFC", "value": 0.4408}, {"measurement": "Cdkn1a logFC", "value": 1.215}, {"measurement": "Cebpa logFC", "value": "−0.3916"}, {"measurement": "Cela1 logFC", "value": "−0.2723"}, {"measurement": "Cep85l logFC", "value": 0.2779}, {"measurement": "Cers6 logFC", "value": 0.5328}, {"measurement": "Ces1b logFC", "value": 0.373}, {"measurement": "Ces1f logFC", "value": "−0.3126"}, {"measurement": "Ces3a logFC", "value": "−0.5253"}, {"measurement": "Ces1d logFC", "value": "−0.4289"}, {"measurement": "Cfhr1 logFC", "value": "−0.3253"}, {"measurement": "Chac2 logFC", "value": "−0.2865"}, {"measurement": "Chd1 logFC", "value": 0.3788}, {"measurement": "Chka logFC", "value": 1.375}, {"measurement": "Chpt1 logFC", "value": 0.3566}, {"measurement": "Cideb logFC", "value": "−0.3684"}, {"measurement": "Cidec logFC", "value": 0.2994}, {"measurement": "Cisd1 logFC", "value": "−0.3727"}, {"measurement": "Cldn2 logFC", "value": "−0.2511"}, {"measurement": "Cldn3 logFC", "value": "−0.3145"}, {"measurement": "Clec4f logFC", "value": 1.108}, {"measurement": "Clec4d logFC", "value": 0.2636}, {"measurement": "Cnpy2 logFC", "value": "−0.3729"}, {"measurement": "Coa6 logFC", "value": "−0.4114"}, {"measurement": "Commd6 logFC", "value": "−0.3645"}, {"measurement": "Comt logFC", "value": "−0.3684"}, {"measurement": "Copb2 logFC", "value": 0.2839}, {"measurement": "Copz1 logFC", "value": 0.2577}, {"measurement": "Coq9 logFC", "value": "−0.3479"}, {"measurement": "Coro1c logFC", "value": 0.3067}, {"measurement": "Cox4i1 logFC", "value": "−0.516"}, {"measurement": "Cox5a logFC", "value": 0.4024}, {"measurement": "Cox6a1 logFC", "value": "−0.4872"}, {"measurement": "Cox6b1 logFC", "value": "−0.362"}, {"measurement": "Cox6c logFC", "value": "−0.8443"}, {"measurement": "Cox8a logFC", "value": 0.4417}, {"measurement": "Cpne3 logFC", "value": 0.258}, {"measurement": "Cpt1a logFC", "value": 0.3729}, {"measurement": "Crat logFC", "value": 0.2556}, {"measurement": "Creb3l2 logFC", "value": 0.4272}, {"measurement": "Creb3l3 logFC", "value": 0.2757}, {"measurement": "Creg1 logFC", "value": 0.2768}, {"measurement": "Creld2 logFC", "value": 0.6087}, {"measurement": "Csad logFC", "value": "−0.5598"}, {"measurement": "Ctage5 logFC", "value": 0.3287}, {"measurement": "Cth logFC", "value": "−0.5109"}, {"measurement": "Ctnnb1 logFC", "value": 0.2957}, {"measurement": "Ctsa logFC", "value": 0.252}, {"measurement": "Ctsb logFC", "value": 0.5213}, {"measurement": "Ctsh logFC", "value": 0.3245}, {"measurement": "Ctss logFC", "value": 0.7642}, {"measurement": "Cvp2e1 logFC", "value": "−2.319"}, {"measurement": "Cxcl1 logFC", "value": 0.4498}, {"measurement": "Cxcl12 logFC", "value": "−0.3058"}, {"measurement": "Cxcr2 logFC", "value": 0.4023}, {"measurement": "Cyp4f14 logFC", "value": "−0.2959"}, {"measurement": "Cyp4f15 logFC", "value": "−0.2998"}, {"measurement": "Cyp27a1 logFC", "value": "−0.3735"}, {"measurement": "D10Jhu81e logFC", "value": "−0.3957"}, {"measurement": "D10Wsu102e logFC", "value": 0.5878}, {"measurement": "D17Wsu92e logFC", "value": 0.372}, {"measurement": "Dbi logFC", "value": "−0.7164"}, {"measurement": "Ddah1 logFC", "value": "−0.312"}, {"measurement": "Ddb1 logFC", "value": 0.2778}, {"measurement": "Ddc logFC", "value": "−0.3608"}, {"measurement": "Ddx6 logFC", "value": 0.4443}, {"measurement": "Ddx27 logFC", "value": 0.2522}, {"measurement": "Decr1 logFC", "value": 0.4664}, {"measurement": "Decr2 logFC", "value": 0.4189}, {"measurement": "Dennd5b logFC", "value": 0.2935}, {"measurement": "Deptor logFC", "value": 0.2606}, {"measurement": "Derl2 logFC", "value": "−0.3317"}, {"measurement": "Dgat2 logFC", "value": "−0.3433"}, {"measurement": "Dhcr24 logFC", "value": 0.4238}, {"measurement": "Dhdh logFC", "value": "−0.3348"}, {"measurement": "Dhrs4 logFC", "value": "−0.3321"}, {"measurement": "Dhx9 logFC", "value": 0.3504}, {"measurement": "Dmgdh logFC", "value": 0.2658}, {"measurement": "Dnajb9 logFC", "value": 0.2586}, {"measurement": "Dnajb11 logFC", "value": 0.3154}, {"measurement": "Dnajc3 logFC", "value": 0.4564}, {"measurement": "Dnajc19 logFC", "value": "−0.316"}, {"measurement": "Dusp5 logFC", "value": 0.2964}, {"measurement": "Dync1h1 logFC", "value": 0.3796}, {"measurement": "Dync1li1 logFC", "value": 0.2624}, {"measurement": "Ebp logFC", "value": "−0.3553"}, {"measurement": "Ech1 logFC", "value": "−0.4291"}, {"measurement": "Echs1 logFC", "value": "−0.3316"}, {"measurement": "Eci1 logFC", "value": "−0.2764"}, {"measurement": "Eci2 logFC", "value": 0.311}, {"measurement": "Edem1 logFC", "value": 0.2869}, {"measurement": "Edf1 logFC", "value": "−0.3817"}, {"measurement": "Eef1a1 logFC", "value": 0.4393}, {"measurement": "Efhd2 logFC", "value": 0.5838}, {"measurement": "Egfr logFC", "value": 0.505}, {"measurement": "Egr1 logFC", "value": 0.5846}, {"measurement": "Ehhadh logFC", "value": "−0.2505"}, {"measurement": "Ei24 logFC", "value": 0.2573}, {"measurement": "Eif4b logFC", "value": 0.3682}, {"measurement": "Eif4g2 logFC", "value": 0.5597}, {"measurement": "Eif5 logFC", "value": 0.5763}, {"measurement": "Ell2 logFC", "value": 0.4172}, {"measurement": "Elovl2 logFC", "value": 0.4522}, {"measurement": "Elovl3 logFC", "value": "−0.676"}, {"measurement": "Ephx2 logFC", "value": "−0.3693"}, {"measurement": "Eprs logFC", "value": 0.3701}, {"measurement": "Erbb2ip logFC", "value": 0.3332}, {"measurement": "Erp44 logFC", "value": 0.2795}, {"measurement": "Esd logFC", "value": "−0.2808"}, {"measurement": "Ethe1 logFC", "value": "−0.3334"}, {"measurement": "Etnppl logFC", "value": 0.4967}, {"measurement": "Ets2 logFC", "value": 0.6956}, {"measurement": "F2 logFC", "value": 0.3213}, {"measurement": "F9 logFC", "value": 0.2568}, {"measurement": "F10 logFC", "value": 0.2791}, {"measurement": "F12 logFC", "value": 0.2567}, {"measurement": "Fah logFC", "value": 0.3025}, {"measurement": "Fam25c logFC", "value": "−0.2977"}, {"measurement": "Fam107b logFC", "value": 0.4633}, {"measurement": "Fam120a logFC", "value": 0.28}]}
